Experimental findings from patent US8822439B2, “Glucocorticoid receptor agonists” (Pfizer Inc., priority 2007, dated 2014) are described below.

Assay [1] has as its system TNF-α release from LPS stimulated isolated human peripheral mononuclear cells (PBMC). Put plainly: Inhibition of TNF-α release from LPS stimulated isolated human PBMC. It is filed as cell-based. To be noted: 1 h preincubation, 18 hours after LPS, ELISA. As to the method:
(§1) The anti-inflammatory activity of the compounds against human leukocytes in vitro was also evaluated by determining inhibition of tumour necrosis factor-α (TNF-α) release from lipopolysaccharide (LPS) stimulated human whole blood (WB) and isolated human peripheral mononuclear cells (PBMC).
(§2) Peripheral venous blood from healthy, non-medicated donors was collected using ethylenediaminetetraacetic acid (EDTA) as the anti-coagulant. For PBMC preparation, samples of blood were diluted 1:1 with sterile phosphate buffered saline and then separated using ACCUSPIN™ System-Histopaque®-1077 tubes (Sigma-Aldrich, St Louis, Mo.), centrifuged at 400 g for 35 minutes. Buffy coat cells were removed into PBS, centrifuged at 200 g for 10 minutes and re-suspended in PBMC assay buffer (Hanks Balanced Salt Solution, 0.28% [w/v] 4-[2-hydroxyethyl]-1-piperazineethanesulfonic acid [HEPES], 0.01% [w/v] low-endotoxin bovine serum albumin [BSA]. A differential white cell count was performed and PBMC's diluted to 1×10^6 lymphocytes per ml in PBMC assay buffer.
(§3) Test compounds were dissolved in DMSO and diluted in PBMC assay buffer (final DMSO concentration 1%) to cover an appropriate concentration range, e.g 0.001 nM to 10000 nM. Samples of test compound solution or vehicle (20 μl) were added into 96-well tissue culture treated plates (Corning) and PBMC (160 μl) or WB (160 μl) added to each well. The assay mixtures were incubated at 37° C. for 1 h in a humidified incubator containing an atmosphere of air supplemented with 5% CO2 before adding LPS (20 μl of 100 ng/ml for PBMC or 1 μg/ml for WB). Plates were returned to the incubator for a further 18 hours, and then centrifuged before recovery of samples of supernatant. TNF-α in the samples was determined using an enzyme-linked immunosorbent assay (ELISA) (Invitrogen kit no CHC-1754; Invitrogen Carlsbad, Calif.) and following the manufacturers instructions. Dose response curves were constructed from which IC50 values were calculated.

Assay [2] concerns LPS-induced lung neutrophils. Put plainly: Inhibition of LPS-induced lung neutrophilia in rats after intratracheal dosing. It is filed as in vivo. To be noted: male CD Sprague-Dawley rats; single intratracheal dose 4 hours before nebulised LPS; BAL 4 hours after LPS. As to the method:
The pharmacological activity may be assessed in in vivo models of lung inflammation such as the one described below. The primary objective of this procedure was to determine the anti-inflammatory activity of the compounds of formula (I), when administered directly into the lungs via the trachea.
Test compounds were dissolved, or prepared as fine suspensions, in phosphate buffered saline containing 0.5% (w/v) Tween-80 to provide a range of dose levels. Male CD Sprague-Dawley rats (300-450 g) were randomised to study groups of n=6 and then briefly anaesthetised in an anaesthetic chamber with 5% Isoflurane in 3 l/min O2. One of the test compound formulations or dose vehicle (100 μl) was injected directly into the trachea of each anaesthetised rat using a Hamilton syringe. The animals were then allowed to recover from the anaesthetic. Dependent on the study design, animals received either a single dose of compound or were treated once daily on 4 successive days. Four hours after the dosing (or 4 hours after the final dose in repeat dose studies) the rats were placed into a chamber (300×300×450 mm), connected to an ultrasonic nebuliser and a small animal rodent ventilator set to the maximum tidal volume and rate (5 ml, 160 strokes/min). 10 ml of 1 mg/ml LPS (Sigma-Aldrich, L2630) dissolved in saline, pre-warmed to 37° C., was nebulised into the chamber. After 15 minutes the ventilator and nebuliser were turned off and the animals remained in the chamber to breathe the mist for a further 15 minutes before being returned to the home cage.
Four hours after the end of the LPS treatment the animals were terminally anaesthetised with 1 ml/kg Pentoject IP. The trachea was cannulated and the lungs lavaged with 4×2.5 ml PBS containing 2.6 mM EDTA and the lavage fluid collected. 1 ml bronchioalveolar lavage (BAL) was added to 125 μl of 40% bovine serum albumen (BSA) and the cellular count determined using an Advia 120 haematology system (Siemens). In repeat dose studies, bodyweights and weights of adrenal glands and thymus were also determined as these are known to decrease in response to glucocorticoid agonist exposure and have been used to assess the systemic effects of glucocorticoid agonists. In some repeat dose experiments, a terminal blood sample was collected from each rat, serum and plasma prepared, and concentrations of corticosterone in serum and ACTH in plasma were determined as additional markers of systemic glucocorticoid agonist effect. In some studies a known glucocorticoid agonist, fluticasone propionate, was administered to separate groups of rats as a positive control.
Separate dose response curves were constructed, for inhibition of LPS-induced lung neutrophils, and each marker of glucocorticoid agonist systemic effect. Half maximal effect doses (ED50) values were estimated from the fitted curves. The ED50 values for effect on systemic markers of glucocorticoid agonist activity were also divided by the ED50 for inhibition of lung neutrophilia in order to determine values for therapeutic index (TI).

Assay [3] has as its system TNF-α release from LPS stimulated human whole blood (WB). Put plainly: Inhibition of TNF-α release from LPS stimulated human whole blood. The assay is classed as cell-based. To be noted: 1 h preincubation, 18 hours after LPS, ELISA. As to the method: as §1, §2, §3
Background: An ELISA detects its analyte on a solid surface through an enzyme-linked reagent.

With `C[S+]([O-])c1cccc(Sc2ccc([C@@H]3O[C@@H]4C[C@H]5[C@@H]6C[C@H](F)C7=CC(=O)C=C[C@]7(C)[C@@]6(F)[C@@H](O)C[C@]5(C)[C@]4(C(=O)CO)O3)cc2)c1` (stereo partly drawn) [Example 4, (4aS,4bR,5S,6aS,6bS,8R,9aR,10aS,10bS,12S)-4b,12-difluoro-6b-glycoloyl-5-hydroxy-4a,6a-dimethyl-8-(4-{[3-(methylsulfinyl)phenyl]thio}phenyl)-4a,4b,5,6,6a,6b,9a,10,10a,10b,11,12-dodecahydro-2H-naphtho[2′,1′:4.5]indeno[1,2-d][1,3]dioxol-2-one], the IC50 in assay [1] is 0.059 nM; in assay [3], 40 nM. Also, in assay [2], the “ED50 for inhibition of lung neutrophilia” value stood at 2.00 µg.

On to `C[C@]12C=CC(=O)C=C1[C@@H](F)C[C@H]1[C@@H]3C[C@H]4O[C@@H](c5ccc(Cc6ccccc6)cc5)O[C@@]4(C(=O)CO)[C@@]3(C)C[C@H](O)[C@@]12F` [Example 1, (4aS,4bR,5S,6aS,6bS,8R,9aR,10aS,10bS,12S)-8-(4-Benzylphenyl)-4b,12-difluoro-6b-glycoloyl-5-hydroxy-4a,6a-dimethyl-4a,4b,5,6,6a,6b,9a,10,10a,10b,11,12-dodecahydro-2H-naphtho[2′,1′:4,5]indeno[1,2-d][1,3]dioxol-2-one], for which the figures for the IC50 in assay [1] and in assay [3] were 0.098 nM and 17 nM, respectively. The “ED50 for inhibition of lung neutrophilia” value in assay [2] worked out at 0.27 µg.

On to `CSc1cccc(Sc2ccc([C@@H]3O[C@@H]4C[C@H]5[C@@H]6C[C@H](F)C7=CC(=O)C=C[C@]7(C)[C@@]6(F)[C@@H](O)C[C@]5(C)[C@]4(C(=O)CO)O3)cc2)c1` [Example 2, (4aS,4bR,5S,6aS,6bS,8R,9aR,10aS,10bS,12S)-4b,12-difluoro-6b-glycoloyl-5-hydroxy-4a 0.6a-dimethyl-8-(4-{[3-(methylthio)phenyl]thio}phenyl)-4a,4b,5,6,6a,6b,9a,10,10a,10b,11.,12-dodecahydro-2H-naphtho[2′,1′:4,5]indeno[1,2-d][1,3]dioxol-2-one], for which the IC50 in assay [1] came out at 0.092 nM; in assay [3], 49 nM. The “ED50 for inhibition of lung neutrophilia” value in assay [2] is 0.18 µg.

As to `C[C@]12C=CC(=O)C=C1[C@@H](F)C[C@H]1[C@@H]3C[C@H]4O[C@@H](c5ccc(CSc6ccc(O)cc6)cc5)O[C@@]4(C(=O)CO)[C@@]3(C)C[C@H](O)[C@@]12F` [Example 3, (4aS,4bR,5S,6aS,6bS,8R,9aR,10aS,10bS,12S)-4b,12-Difluoro-6b-glycoloyl-5-hydroxy-8-(4-{[(4-hydroxyphenyl)thio]methyl}phenyl)-4a 0.6a-dimethyl-4a,4b,5,6,6a,6b,9a,10,10a,10b,11,12-dodecahydro-2H-naphtho[2′,1′:4,5]indeno[1,2-d][1,3]dioxol-2-one], the IC50 in assay [1] worked out at 0.061 nM; in assay [3], 24 nM. Further, the “ED50 for inhibition of lung neutrophilia” value in assay [2] came out at 0.45 µg.

For `C[C@]12C=CC(=O)C=C1[C@@H](F)C[C@H]1[C@@H]3C[C@H]4O[C@@H](c5ccc(CSc6ccc(O)c(Cl)c6)cc5)O[C@@]4(C(=O)CO)[C@@]3(C)C[C@H](O)[C@@]12F` [Example 5, (4aS,4bR,5S,6aS,6bS,8R,9aR,10aS,10bS,12S)-8-(4-{[(3-chloro-4-hydroxyphenyl)thio]methyl}phenyl)-4-b,12-difluoro-6b-glycoloyl-5-hydroxy-4a,6a-dimethyl-4a,4b,5,6,6a,6b,9a,10,10a,10b. 11,12-dodecahydro-2H-naphtho[2′,1′:4.5]indeno[1,2-d][1,3]dioxol-2-one], the IC50 in assay [1] was determined as 0.032 nM; in assay [3], 8.73 nM. Besides, the “ED50 for inhibition of lung neutrophilia” value in assay [2] was determined as 3.6 µg.

One may read the IC50 as the concentration that inhibits the measured activity by half. Lower therefore signals greater potency.
